Laboratory results from ChEMBL document CHEMBL1201862, “PubChem BioAssay data set” (2004).
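Step 1: Grow cells in 96-well plates. Step 2: Expose to compound for 48 hours at 5 concentrations. Step 3: Interpolate endpoints linearly; if unreached, use highest concentration. GI50 = concentration required for 50% inhibition of growth.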 Calls of active or inactive are those of the source. No stated cut-off is given here; in the data, active = GI50 up to about 1.1 µM and inactive = higher.

Key:
Assay in all cases: NCI tumour cell line growth inhibition, 48 h
[1] = system: OVCAR-8
[2] = system: SF-295
[3] = system: SNB-19
[4] = system: HCT-116
[5] = system: K562
[6] = system: EKVX
[7] = system: U-251
[8] = system: SN12C
[9] = system: IGROV-1
[10] = system: TK-10
[11] = system: SF-268
[12] = system: HOP-92
[13] = system: SK-MEL-2
[14] = system: SK-MEL-28
[15] = system: M14
[16] = system: MDA-MB-435
[17] = system: SW-620
[18] = system: DU-145
[19] = system: HCT-15
[20] = system: MCF7

| SMILES | GI50 [1] | GI50 [2] | GI50 [3] | GI50 [4] | GI50 [5] | GI50 [6] | GI50 [7] | GI50 [8] | GI50 [9] | GI50 [10] | GI50 [11] | GI50 [12] | GI50 [13] | GI50 [14] | GI50 [15] | GI50 [16] | GI50 [17] | GI50 [18] | GI50 [19] [µM] | GI50 [20] |
| --- | --- | --- | --- | --- | --- | --- | --- | --- | --- | --- | --- | --- | --- | --- | --- | --- | --- | --- | --- | --- |
| c1ccc(-c2sc(-c3ccccc3)c3c2C2CCC3C2)cc1 | 32.9 µM (inactive) | 35.1 µM (inactive) | > 100 µM (inactive) | 27 µM (inactive) | 35.2 µM (inactive) | 42.1 µM (inactive) | 38.2 µM (inactive) | 45.3 µM (inactive) | 47.1 µM (inactive) | 27 µM (inactive) | 53.3 µM (inactive) | 12.6 µM (inactive) | 19.2 µM (inactive) | 49 µM (inactive) | 35.3 µM (inactive) | 38.6 µM (inactive) | 43.3 µM (inactive) | > 100 µM (inactive) | 31.6 |  |
| O=C1/C(=C/c2ccc([N+](=O)[O-])cc2)Oc2cc(O)ccc21 | 29.6 µM (inactive) | 37.8 µM (inactive) | 29.1 µM (inactive) | 26.2 µM (inactive) | 17.9 µM (inactive) | 33.7 µM (inactive) | 28.1 µM (inactive) | 26.6 µM (inactive) | 29.1 µM (inactive) | 27.4 µM (inactive) | 61 µM (inactive) |  |  | 41 µM (inactive) | 43.1 µM (inactive) | 30.5 µM (inactive) | 41 µM (inactive) | 33.7 µM (inactive) | 25.1 | 27.2 µM (inactive) |
| Cc1c(C(=O)CC(=O)C(=O)Nc2cc(Cl)ccc2Cl)[n+]([O-])c2ccccc2[n+]1[O-] | 30.7 µM (inactive) | > 100 µM (inactive) | 45.5 µM (inactive) | 35.4 µM (inactive) | 72.4 µM (inactive) | 37.8 µM (inactive) | 34.8 µM (inactive) | 36.8 µM (inactive) | 36.9 µM (inactive) | > 100 µM (inactive) | 33.4 µM (inactive) | > 100 µM (inactive) | 37.9 µM (inactive) | 43.1 µM (inactive) | 25.3 µM (inactive) |  | 36 µM (inactive) |  | 29 |  |
| O=S(=O)(/C=C/c1ccc(Cl)cc1Cl)Cc1ccccc1CS(=O)(=O)/C=C/c1ccc(Cl)cc1Cl | 7.5 µM (inactive) | 89.3 µM (inactive) | > 100 µM (inactive) | 9.59 µM (inactive) | 61.1 µM (inactive) | > 100 µM (inactive) | > 100 µM (inactive) | > 100 µM (inactive) | > 100 µM (inactive) | > 100 µM (inactive) | 40.5 µM (inactive) | 35.8 µM (inactive) | > 100 µM (inactive) | > 100 µM (inactive) | > 100 µM (inactive) |  | > 100 µM (inactive) |  | 46.2 |  |
| N#CC(C(=O)CCC(=O)Nc1ccc(Cl)cc1)c1ccc(Cl)cc1 (configuration not stated) | > 100 µM (inactive) | > 100 µM (inactive) | > 100 µM (inactive) | 65.9 µM (inactive) | 18.9 µM (inactive) | > 100 µM (inactive) | > 100 µM (inactive) | > 100 µM (inactive) | 89.5 µM (inactive) | > 100 µM (inactive) | 93.3 µM (inactive) | > 100 µM (inactive) | > 100 µM (inactive) |  | 52 µM (inactive) |  | > 100 µM (inactive) |  | > 100 |  |
| Nc1c(S(=O)(=O)c2ccccc2)c2nc3ccccc3nc2n2c1nc1ccccc12 | 20.1 µM (inactive) | > 34.7 µM (inactive) | > 51.8 µM (inactive) | 56.2 µM (inactive) | 22.4 µM (inactive) | > 68.5 µM (inactive) | 24.7 µM (inactive) | > 48.1 µM (inactive) | > 57.3 µM (inactive) | > 100 µM (inactive) | > 45.3 µM (inactive) | > 100 µM (inactive) | > 55.3 µM (inactive) | 10.4 µM (inactive) | 16.2 µM (inactive) |  | > 68.2 µM (inactive) |  | 36.1 |  |
| CCCCCCCCCCCCCCCCOP(=O)(O)OCC(N)C(=O)O (configuration not stated) | 25.4 µM (inactive) | 14.5 µM (inactive) | 16.4 µM (inactive) | 12.5 µM (inactive) | 22.8 µM (inactive) | 54.1 µM (inactive) | 12.9 µM (inactive) | 18.3 µM (inactive) | 18.4 µM (inactive) | 5.02 µM (inactive) | 18.5 µM (inactive) | 19.5 µM (inactive) | 19.3 µM (inactive) | 43.1 µM (inactive) | 24.8 µM (inactive) | 22.5 µM (inactive) | 17 µM (inactive) | 87.3 µM (inactive) | 27.7 |  |
| O=[N+]([O-])/C(C(Cl)=C(Cl)Cl)=C(/Nc1ccccc1)SCc1ccccc1 | 17.7 µM (inactive) | 34.4 µM (inactive) | 25.2 µM (inactive) | 16.6 µM (inactive) | 24 µM (inactive) | 21 µM (inactive) | 20.1 µM (inactive) | 22.4 µM (inactive) | 22.3 µM (inactive) | 29.8 µM (inactive) | 20.5 µM (inactive) | 31 µM (inactive) | 19.4 µM (inactive) | 20.4 µM (inactive) | 16.9 µM (inactive) | 17.8 µM (inactive) | 26.7 µM (inactive) | 23.6 µM (inactive) | 14.4 |  |
| CC(C)C(=O)N1C(=O)O[C@@H](c2ccccc2)[C@H]1C | > 100 µM (inactive) | > 100 µM (inactive) | > 23.6 µM (inactive) | > 100 µM (inactive) | > 100 µM (inactive) | > 100 µM (inactive) | > 100 µM (inactive) | > 100 µM (inactive) | > 100 µM (inactive) | > 100 µM (inactive) | > 100 µM (inactive) | > 100 µM (inactive) | > 100 µM (inactive) | > 100 µM (inactive) | > 100 µM (inactive) |  |  |  | > 100 |  |
| O=C(O)c1ccc(Nc2nc3ccccc3nc2-c2cccs2)cc1 | 54.2 µM (inactive) | > 100 µM (inactive) |  | 94 µM (inactive) | 45.5 µM (inactive) | 92.5 µM (inactive) | 95.9 µM (inactive) | > 100 µM (inactive) | 73.5 µM (inactive) | > 100 µM (inactive) | 82.2 µM (inactive) | 68.2 µM (inactive) |  | > 100 µM (inactive) |  | > 100 µM (inactive) | > 100 µM (inactive) | > 100 µM (inactive) | 68.7 |  |
| COc1cc2cc3c4c(cc(OC)c(OC)c4c2cc1OC)CCN3 | 76.4 µM (inactive) | 37 µM (inactive) | > 100 µM (inactive) | 36.6 µM (inactive) | 27.9 µM (inactive) | 6.53 µM (inactive) | > 100 µM (inactive) | 46.7 µM (inactive) | > 100 µM (inactive) | 74.5 µM (inactive) | 34 µM (inactive) | 20.8 µM (inactive) | 22.1 µM (inactive) | 69.8 µM (inactive) | 32.9 µM (inactive) |  | 21.1 µM (inactive) |  | 32.9 |  |
| COc1ccc(N2C(=O)C(=O)N(c3ccccc3[N+](=O)[O-])C2=S)cc1 | 21.1 µM (inactive) | 35.1 µM (inactive) | 44.6 µM (inactive) | 28.6 µM (inactive) | 32.1 µM (inactive) | 30.5 µM (inactive) | 37.8 µM (inactive) | 37.4 µM (inactive) | 34.8 µM (inactive) | 21.7 µM (inactive) | 33.7 µM (inactive) | 19.6 µM (inactive) | 14.6 µM (inactive) | 33 µM (inactive) |  | 27.4 µM (inactive) | 37.9 µM (inactive) | 38.4 µM (inactive) | 18.2 |  |
| CN(C)C(=S)OC(Cn1cncn1)c1ccc(Cl)cc1Cl (configuration not stated) | > 100 µM (inactive) | > 100 µM (inactive) | > 100 µM (inactive) | > 100 µM (inactive) | > 100 µM (inactive) | > 100 µM (inactive) | > 100 µM (inactive) | > 100 µM (inactive) | > 100 µM (inactive) | > 100 µM (inactive) | > 100 µM (inactive) | 72.8 µM (inactive) | > 100 µM (inactive) | > 100 µM (inactive) | > 100 µM (inactive) |  | > 100 µM (inactive) |  | > 100 |  |
| O=C(O)C[C@@H](Cl)[C@H](NC(=O)OCc1ccccc1)C(=O)O | > 100 µM (inactive) | > 100 µM (inactive) | > 100 µM (inactive) | > 100 µM (inactive) | > 100 µM (inactive) | > 100 µM (inactive) | > 100 µM (inactive) | > 100 µM (inactive) | > 100 µM (inactive) | > 100 µM (inactive) | > 100 µM (inactive) | > 100 µM (inactive) | > 100 µM (inactive) | > 100 µM (inactive) | > 100 µM (inactive) |  | > 100 µM (inactive) |  | > 100 |  |
| C[C@]12CC[C@@H]3c4cc(I)c(O)cc4CC[C@H]3[C@@H]1CC[C@@H]2O | 6.52 µM (inactive) | 3.48 µM (inactive) | 7.33 µM (inactive) |  | 3.52 µM (inactive) | 2.65 µM (inactive) | 4.48 µM (inactive) |  | 5.93 µM (inactive) | 9.68 µM (inactive) | 9.38 µM (inactive) | 10.3 µM (inactive) | 3.02 µM (inactive) | 7.96 µM (inactive) | 4.09 µM (inactive) |  | 3.58 µM (inactive) |  | 2.48 | 5.87 µM (inactive) |
| COc1ccc2cc3[n+](cc2c1OC)CCc1cc2c(cc1-3)OCO2 [BERBERINE CHLORIDE] | 12.7 µM (inactive) |  | 8.38 µM (inactive) |  | 16.6 µM (inactive) |  |  |  | 40.6 µM (inactive) | > 100 µM (inactive) | 5.2 µM (inactive) | 36.7 µM (inactive) | 25.3 µM (inactive) | 22.2 µM (inactive) | 22.8 µM (inactive) | 12.8 µM (inactive) | 40.6 µM (inactive) | > 44.5 µM (inactive) |  |  |
